Reference: patent publication US20260265175A1, “METHOD FOR OBTAINING ORGANIC ACIDS FROM AN AQUEOUS MOTHER LIQUOR” (Covestro Deutschland AG, priority 2022, published 2026)

Columns and labels:
[1] = Cu(OH)2 roughly stoichiometric, pH 4.5, starting solution 12 g/L
[2] = Precipitation of 2-aminobenzoic acid (oAB) from aqueous solution as metal compound; residual oAB in supernatant by HPLC; type: physicochemical; details: value is the detection limit
Text: The pH was adjusted to about 3.5 with a 1M NaOH solution (corresponding to the isoelectric point of oAB). […] The solid (Cu(oAB)2, Fe(oAB)2 and/or Mn(oAB)2) was separated from the liquid phase by centrifugation.

Row | adipic acid concentration in liquid phase after precipitation with recycled Cu(OH)2 (sample C) [1] [g/L] | SMILES | oAB concentration in aqueous supernatant after precipitation of the metal compound of the organic acid (sample A) ([2]; CuSO4, FeSO4 or MnSO4, metal salt:oAB 1:2, pH about 3.5, room temperature, starting solution 5 g/L) [goAB/L] | oAB concentration in liquid phase after precipitation with recycled metal hydroxide (sample C) ([2]; after addition both of Fe(OH)2 and Cu(OH)2, pH 3.5, starting solution 5 g/L) [goAB/L]
1 | 3 | O=C(O)CCCCC(=O)O [adipic acid, Adipic acid] |  | 
2 |  | Nc1ccccc1C(=O)O [oAB, 2-Aminobenzoic acid] | < 0.05 | < 0.05
